{
  "source": "patent US6777193B1",
  "about": "“Methods for diagnostic and/or treatment of antiphospholipids antibodies-related diseases, and devices” (Escuela Nacional de Ciencias Biologicas, del Instituto …, priority 2000, dated 2004)",
  "key": {"[1]": {"system": "H308 monoclonal antibody", "experiment": "Inhibition of H308 monoclonal antibody by phosphorylated haptens (liposomal-ELISA)", "assay_type": "binding, mouse", "conditions": "0.2 μmoles of hapten", "method": "Studies on inhibition of anti-lipidic particles antibodies were carried out using liposomes as antigens and the antigen-antibody reaction was analyzed by the liposomal-ELISA method, which includes the following steps:\nA) A first step of addition and incubation, in which an effective quantity of an antigen suspension is added to each one of the wells of the ELISA microtiter plate. This microtiter plate is selected among those with a high lipidic antigens binding property and said microtiter plate is incubated between 25 to 30° C. for 0.25 to 2 h.\nB) A second step of addition and incubation, in which an effective quantity of a blocking solution is added to each one of the wells of the ELISA microtiter plate with a high lipidic antigens binding property, and said microtiter plate being incubated at a temperature between 25 to 30° C. for 0.25 to 2 h.\nC) A step of elimination of blocking solution, preferably by suction, avoiding that microtiter plate becomes dry when blocking solution is eliminated, because liposomal antigens can be damaged.\nD) A step of inhibition of the antibody porter, in which the antibody porter is incubated with a chemical substance, or hapten, that will inhibit the active site that recognizes the antigen in the antibody porter.\nE) A third step of addition and incubation, in which an effective quantity of the antibody porter inhibited by the hapten was quickly added, to avoid that microtiter plate becomes dry, to each one of the wells using an antibody porter dilution from 1:5 to 1:1000 into blocking solution. This microtiter plate being incubated for 0.25 to 2 h at a temperature between 25 to 30° C.\nF) A first step of washing, in which the microtiter plate is washed with the blocking solution, preferably repeating 4-times and avoiding that microtiter plate becomes dry when eliminating the blocking solution.\nG) A fourth step of addition and incubation, in which an effective quantity of a second antibody is added to each one of the wells of microtiter plate. This plate is incubated in the darkness for 0.25 to 2 h at a temperature between 25 to 30° C. Second antibody is selected preferably among antibodies from a different specie to that of the antibody porter and they can be anti-Fc of human IgG, IgA and IgM or of the animal in study, or antibodies anti-Fc of IgM or of IgG depending on the nature of the monoclonal antibody when this is the antibody porter. Second antibody is used in a final dilution into blocking solution between […] and 1:3500 and it is conjugated to an enzyme preferably to peroxidase.\nH) A second step of washing, in which the microtiter plate is washed with the blocking solution, preferably repeating 4-times and avoiding that microtiter plate becomes dry when eliminating the blocking solution.\nI) A fifth step of addition and incubation, in which an effective quantity of the peroxidase sustrates is added to each one of the wells and this microtiter plate is incubated for 0.1 to 0.5 h at a temperature between .35 and 40° C., stopping the peroxidase reaction by adding an effective quantity of sulfuric acid.\nJ) A step of analysis, in which microtiter plate is analyzed using a reading device for ELISA plates, preferably at 492 nm.\nIn a specific embodiment, the hapten solution is obtained dissolving hapten in a buffer solution at pH between 7.0 and 7.4, in a relationship from 0.1 to 10 mmoles of hapten per liter of buffer solution.\nCostar microtiter plates, with 96 flat-bottom wells with a high lipidic antigens binding property (Costar Co. Cambrige, USA) were coated by the addition to each one of the wells of 100 μl of liposomes made from egg-yolk phosphatidylcholine:phosphatidate (2:1 molar ratio) in Tris-NaCl buffer (10 mM, 1 mM) pH 7, containing 0.1 μmol of phosphatidate, and treated with 5 mM CaCl2 to induce lipidic particles formation. Microtiter plates were incubated at room temperature for 1 h and they were blocked for 1 h at room temperature in a similar way as was described in Example 1. […]"}, "[2]": {"system": "anti-lipidic particles antibodies from sera of patients with the antiphospholipid syndrome", "experiment": "Hapten inhibition of anti-lipidic particles antibodies from patients' sera (liposomal-ELISA)", "assay_type": "binding, human", "conditions": "0.2 μmoles hapten, 30 min at 30° C.", "method": "Costar microtiter plates, with 96 flat-bottom wells with a high lipidic antigens binding property (Costar Co. Cambrige, USA) were coated by the addition to each one of the wells of 100 μl of liposomes made from egg-yolk phosphatidylcholine:phosphatidate (2:1 molar ratio) in Tris-NaCl buffer (10 mM, 1 mM) pH 7, containing 0.1 μmol of phosphatidate, and treated with 5 mM CaCl2 to induce lipidic particles formation.\nAliquots of 100 μl of patients' sera that were analyzed in Examples 1 and 2B were incubated with 100 μl of 0.2 μmoles of glycerolphosphorylcholine for 30 min at 30° C. Later on, blocked patients sera were added to the wells of the microtiter plate and the liposomal-ELISA method was applied as it was described in Example 1. Peroxidase-conjugated goat anti-Fc of human IgG, IgA and IgM antibodies were used as second antibody."}, "[3]": {"system": "BALB/c female mice", "experiment": "Treatment of the pathology induced by H308 monoclonal antibody in mice", "assay_type": "in vivo, mouse", "method": "H308 monoclonal antibody was administered by intraperitoneal injection of 1 μg each week during two months to BALB/c female mice, and simultaneously the glycerolphosphorylcholine hapten was administered at 2.5 mg/Kg, of body weight, doses by intravenous injection each 24 hs, for 2-months.\nSpermidine was administered, as chlorhydrate, in a dose of 1 mg/Kg, of body weight, by intraperitoneal injection each 24 hs, during two months."}},
  "data": [
    {"molecule": "C[N+](C)(C)CCOP(=O)([O-])OC[C@H](O)CO", "note": "[glycerolphosphorylcholine]", "values": [
      {"measurement": "inhibition of H308 monoclonal antibody", "setting": "[1]", "value": 100, "unit": "%"},
      {"measurement": "inhibition in the immunoreaction of patients sera with lipidic particles in liposomes", "setting": "[2]", "value": 100, "unit": "%"},
      {"measurement": "inhibition of the development of mice pathology by H308 monoclonal antibody", "setting": "[3]; hapten 2.5 mg/Kg intravenous each 24 hs for 2-months, H308 1 μg i.p. each week", "value": 40, "unit": "%"},
      {"measurement": "therapeutically effective quantity", "setting": "[3]; of body weight, BALB/c female mice given H308", "value": 2.5, "unit": "mg/kg"}
    ]}
  ]
}
